Assay in all cases: Glasshouse herbicidal test, pre- and post-emergence, percentage damage to the plant
What all share (type): in vivo

The subject of assay [1] is Alopecurus myosuroides (ALOMY). The conditions noted are these: 250 g/h, evaluated after 13 days; for ALOMY POST percentage damage caused to the plant (five-point scale): post-emergence; for ALOMY PRE percentage damage caused to the plant (five-point scale): pre-emergence. As to the method: (§1) Seeds of a variety of test species are sown in standard soil in pots (Lolium perenne (LOLPE), Setaria faberi (SETFA), Alopecurus myosuroides (ALOMY), Echinochloa crus-galli (ECHCG), Avena fatua (AVEFA)). After cultivation for one day (pre-emergence) or after 8 days cultivation (post-emergence) under controlled conditions in a glasshouse (at 24/16° C., day/night; 14 hours light; 65% humidity), the plants are sprayed with an aqueous spray solution derived from the formulation of the technical active ingredient in acetone/water (50:50) solution containing 0.5% Tween 20 (polyoxyethelyene sorbitan monolaurate, CAS RN 9005-64-5). Compounds are applied at 250 g/h. The test plants are then grown in a glasshouse under controlled conditions in a glasshouse (at 24/16° C., day/night; 14 hours light; 65% humidity) and watered twice daily. After 13 days for pre and post-emergence, the test is evaluated for the percentage damage caused to the plant. The biological activities are shown in the following table on a five-point scale (5=80-100%; 4=60-79%; 3=40-59%; 2=20-39%; 1=0-19%).

For the next assay, the system named is Avena fatua (AVEFA). The settings on record: 250 g/h, evaluated after 13 days; for AVEFA POST percentage damage caused to the plant (five-point scale): post-emergence; for AVEFA PRE percentage damage caused to the plant (five-point scale): pre-emergence. As to the method: as §1
In assay [2] the test system is Echinochloa crus-galli (ECHCG). The conditions noted are these: 250 g/h, evaluated after 13 days; for ECHCG POST percentage damage caused to the plant (five-point scale): post-emergence; for ECHCG PRE percentage damage caused to the plant (five-point scale): pre-emergence. As to the method:
as §1

For a further assay, the system named is Lolium perenne (LOLPE). The conditions noted are these: 250 g/h, evaluated after 13 days; for LOLPE POST percentage damage caused to the plant (five-point scale): post-emergence; for LOLPE PRE percentage damage caused to the plant (five-point scale): pre-emergence. As to the method:
as §1

The test system of another assay is Setaria faberi (SETFA). The settings on record: 250 g/h, evaluated after 13 days; for SETFA POST percentage damage caused to the plant (five-point scale): post-emergence; for SETFA PRE percentage damage caused to the plant (five-point scale): pre-emergence. As to the method: as §1

On to `CC#Cc1cc(Cl)c(C2C(=O)CC3(CCN(C(=O)NC(=O)c4ccccn4)CC3)CC2=O)c(Cl)c1` [Compound A17], for which, in assay [1], the “ALOMY POST percentage damage caused to the plant (five-point scale)” value (“ALOMY POST percentage damage caused” below) is 2 (2=20-39%) and the “ALOMY PRE percentage damage caused to the plant (five-point scale)” value (“ALOMY PRE percentage damage caused” for short) is 2 (2=20-39%). In the assay with Avena fatua (AVEFA), the “AVEFA POST percentage damage caused to the plant (five-point scale)” value (“AVEFA POST percentage damage caused” for short) is on record as 5 (5=80-100%) and the “AVEFA PRE percentage damage caused to the plant (five-point scale)” value (from here on “AVEFA PRE percentage damage caused”) is 2 (2=20-39%). In assay [2], the “ECHCG POST percentage damage caused to the plant (five-point scale)” value (“ECHCG POST percentage damage caused” for short) is recorded as 5 (5=80-100%) and the “ECHCG PRE percentage damage caused to the plant (five-point scale)” value (from here on “ECHCG PRE percentage damage caused”) is 3 (3=40-59%). For the same molecule, in the assay with Lolium perenne (LOLPE), the “LOLPE POST percentage damage caused to the plant (five-point scale)” value (“LOLPE POST percentage damage caused” for short) is listed as 5 (5=80-100%) and the “LOLPE PRE percentage damage caused to the plant (five-point scale)” value (from here on “LOLPE PRE percentage damage caused”) is reported as 2 (2=20-39%). Moreover, in the assay with Setaria faberi (SETFA), the “SETFA POST percentage damage caused to the plant (five-point scale)” value (“SETFA POST percentage damage caused” for short) is given as 5 (5=80-100%) and the “SETFA PRE percentage damage caused to the plant (five-point scale)” value (from here on “SETFA PRE percentage damage caused”) was 4 (4=60-79%).
Regarding `CC#Cc1cc(Cl)c(C2C(=O)CC3(CCN(C(=O)NC(=O)C(C)(C)C)CC3)CC2=O)c(OC)c1` [Compound A7], in assay [1], the “ALOMY POST percentage damage caused” value is 5 (5=80-100%) and the “ALOMY PRE percentage damage caused” value is listed as 5 (5=80-100%). Moreover, in the assay with Avena fatua (AVEFA), the “AVEFA POST percentage damage caused” value is recorded as 5 (5=80-100%) and the “AVEFA PRE percentage damage caused” value is recorded as 5 (5=80-100%). For the same molecule, in assay [2], the “ECHCG POST percentage damage caused” value is given as 5 (5=80-100%) and the “ECHCG PRE percentage damage caused” value is on record as 5 (5=80-100%). Besides, in the assay with Lolium perenne (LOLPE), the “LOLPE POST percentage damage caused” value is on record as 5 (5=80-100%) and the “LOLPE PRE percentage damage caused” value is given as 5 (5=80-100%). In the assay with Setaria faberi (SETFA), the “SETFA POST percentage damage caused” value is 5 (5=80-100%) and the “SETFA PRE percentage damage caused” value is 5 (5=80-100%).
In the case of `CC#Cc1cc(Cl)c(C2C(=O)CC3(CCN(C(=O)c4ccccn4)CC3)CC2=O)c(OC)c1` [Compound A4], in assay [1], the “ALOMY POST percentage damage caused” value is given as 5 (5=80-100%) and the “ALOMY PRE percentage damage caused” value was 5 (5=80-100%). Further, in the assay on Avena fatua (AVEFA), the “AVEFA POST percentage damage caused” value is reported as 5 (5=80-100%) and the “AVEFA PRE percentage damage caused” value is 5 (5=80-100%). In assay [2], the “ECHCG POST percentage damage caused” value is 5 (5=80-100%) and the “ECHCG PRE percentage damage caused” value is recorded as 5 (5=80-100%). Also, in the assay with Lolium perenne (LOLPE), the “LOLPE POST percentage damage caused” value is 5 (5=80-100%) and the “LOLPE PRE percentage damage caused” value was 5 (5=80-100%). Moreover, in the assay on Setaria faberi (SETFA), the “SETFA POST percentage damage caused” value was 5 (5=80-100%) and the “SETFA PRE percentage damage caused” value is recorded as 5 (5=80-100%).
On to `CC#Cc1cc(Cl)c(C2C(=O)CC3(CCN(S(=O)(=O)CC)CC3)CC2=O)c(OC)c1` [Compound A2], for which, in assay [1], the “ALOMY POST percentage damage caused” value is given as 5 (5=80-100%) and the “ALOMY PRE percentage damage caused” value was 5 (5=80-100%). In addition, in the assay on Avena fatua (AVEFA), the “AVEFA POST percentage damage caused” value is 5 (5=80-100%) and the “AVEFA PRE percentage damage caused” value was 5 (5=80-100%). In assay [2], the “ECHCG POST percentage damage caused” value is 5 (5=80-100%) and the “ECHCG PRE percentage damage caused” value was 5 (5=80-100%). In addition, in the assay on Lolium perenne (LOLPE), the “LOLPE POST percentage damage caused” value is listed as 5 (5=80-100%) and the “LOLPE PRE percentage damage caused” value is recorded as 5 (5=80-100%). Besides, in the assay on Setaria faberi (SETFA), the “SETFA POST percentage damage caused” value is 5 (5=80-100%) and the “SETFA PRE percentage damage caused” value is listed as 5 (5=80-100%).
On to `CC#Cc1cc(CC)c(C2C(=O)CC3(CCN(C(C)=O)CC3)CC2=O)c(CC)c1` [Compound A48], for which, in assay [1], the “ALOMY POST percentage damage caused” value was 5 (5=80-100%) and the “ALOMY PRE percentage damage caused” value is on record as 5 (5=80-100%). In addition, in the assay on Avena fatua (AVEFA), the “AVEFA POST percentage damage caused” value is recorded as 5 (5=80-100%) and the “AVEFA PRE percentage damage caused” value is 5 (5=80-100%). In addition, in assay [2], the “ECHCG POST percentage damage caused” value is reported as 5 (5=80-100%) and the “ECHCG PRE percentage damage caused” value is 4 (4=60-79%). Also, in the assay on Lolium perenne (LOLPE), the “LOLPE POST percentage damage caused” value is reported as 5 (5=80-100%) and the “LOLPE PRE percentage damage caused” value is 5 (5=80-100%). Further, in the assay with Setaria faberi (SETFA), the “SETFA POST percentage damage caused” value is on record as 5 (5=80-100%) and the “SETFA PRE percentage damage caused” value is 5 (5=80-100%).

Source of the values: patent US12590067B2, “Herbicidal cyclohexanedione derivatives” (SYNGENTA CROP PROTECTION AG, priority 2019, dated 2026).
